Data published in patent publication US9738644B2, “Chemical compounds, compositions and methods for kinase modulation” (Infinity Pharmaceuticals, Inc., priority 2010, dated 2017).

Legend:
PI3K γ = target: T1, PI3K γ (Homo sapiens, UniProt P48736); test: In vitro PI3K γ inhibition assay; assay type: biochemical
T1 construct: purchased Sigma
Experimental: (§1) Class I PI3-Ks can be either purchased (p110α/p85α, p110β/p85α, p110δ/p85α from Upstate, and p110γ from Sigma) or expressed as previously described (Knight et al., 2004). IC50 values are measured using either a standard TLC assay for lipid kinase activity (described below) or a high-throughput membrane capture assay. Kinase reactions are performed by preparing a reaction mixture containing kinase, inhibitor (2% DMSO final concentration), buffer (25 mM HEPES, pH 7.4, 10 mM MgCl2), and freshly sonicated phosphatidylinositol (100 μg/ml). Reactions are initiated by the addition of ATP containing 10 μCi of γ-32P-ATP to a final concentration of 10 or 100 μM and allowed to proceed for 5 minutes at room temperature. For TLC analysis, reactions are then terminated by the addition of 105 μl 1N HCl followed by 160 μl CHCl3:MeOH (1:1). The biphasic mixture is vortexed, briefly centrifuged, and the organic phase is transferred to a new tube using a gel loading pipette tip precoated with CHCl3. This extract is spotted on TLC plates and developed for 3-4 hours in a 65:35 solution of n-propanol:1M acetic acid. The TLC plates are then dried, exposed to a phosphorimager screen (Storm, Amersham), and quantitated. For each compound, kinase activity is measured at 10-12 inhibitor concentrations representing two-fold dilutions from the highest concentration tested (typically, 200 μM). […] Other commercial kits or systems for assaying PI3-K activities are available. The commercially available kits or systems can be used to screen for inhibitors and/or agonists of PI3-Ks including, but not limited to, PI 3-Kinase α, β, δ, and γ. An exemplary system is PI 3-Kinase (human) HTRF™ Assay from Upstate. […] Briefly, the assay is a time resolved FRET assay that indirectly measures PIP3 product formed by the activity of a PI3-K. The kinase reaction is performed in a microtiter plate (e.g., a 384 well microtiter plate). The total reaction volume is approximately 20 μl per well. In the first step, each well receives 2 μl of test compound in 20% dimethylsulphoxide resulting in a 2% DMSO final concentration. Next, approximately 14.5 μl of a kinase/PIP2 mixture (diluted in 1× reaction buffer) is added per well for a final concentration of 0.25-0.3 μg/ml kinase and 10 μM PIP2. The plate is sealed and incubated for 15 minutes at room temperature. To start the reaction, 3.5 μl of ATP (diluted in 1× reaction buffer) is added per well for a final concentration of 10 μM ATP. The plate is sealed and incubated for 1 hour at room temperature. The reaction is stopped by adding 5 μl of Stop Solution per well and then 5 μl of Detection Mix is added per well. The plate is sealed, incubated for 1 hour at room temperature, and then read on an appropriate plate reader. Data is analyzed and IC50s are generated using GraphPad Prism 5.

Balb/c splenic B cells = test: B cell activation and proliferation assay (Alamar Blue); assay type: cell-based; conditions: Mus musculus, read-out: B cell proliferation EC50
Experimental: The ability of one or more subject compounds to inhibit B cell activation and proliferation is determined according to standard procedures known in the art. For example, an in vitro cellular proliferation assay is established that measures the metabolic activity of live cells. The assay is performed in a 96 well microtiter plate using Alamar Blue reduction. Balb/c splenic B cells are purified over a Ficoll-Paque™ PLUS gradient followed by magnetic cell separation using a MACS B cell Isolation Kit (Miletenyi). Cells are plated in 90 μl at 50,000 cells/well in B Cell Media (RPMI+10% FBS+Penn/Strep+50 μM bME+5 mM HEPES). A compound disclosed herein is diluted in B Cell Media and added in a 10 μl volume. Plates are incubated for 30 min at 37° C. and 5% CO2 (0.2% DMSO final concentration). A 50 μl B cell stimulation cocktail is then added containing either 10 μg/ml LPS or 5 μg/ml F(ab′)2 Donkey anti-mouse IgM plus 2 ng/ml recombinant mouse IL4 in B Cell Media. Plates are incubated for 72 hours at 37° C. and 5% CO2. A volume of 15 μL of Alamar Blue reagent is added to each well and plates are incubated for 5 hours at 37° C. and 5% CO2. Alamar Blue fluoresce is read at 560Ex/590Em, and IC50 or EC50 values are calculated using GraphPad Prism 5.

PI3K δ = target: T2, PI3K δ (Homo sapiens, UniProt O00329); test: In vitro PI3K δ inhibition assay; assay type: biochemical
T2 construct: purchased Upstate
T2 sequence (O00329 whole entry): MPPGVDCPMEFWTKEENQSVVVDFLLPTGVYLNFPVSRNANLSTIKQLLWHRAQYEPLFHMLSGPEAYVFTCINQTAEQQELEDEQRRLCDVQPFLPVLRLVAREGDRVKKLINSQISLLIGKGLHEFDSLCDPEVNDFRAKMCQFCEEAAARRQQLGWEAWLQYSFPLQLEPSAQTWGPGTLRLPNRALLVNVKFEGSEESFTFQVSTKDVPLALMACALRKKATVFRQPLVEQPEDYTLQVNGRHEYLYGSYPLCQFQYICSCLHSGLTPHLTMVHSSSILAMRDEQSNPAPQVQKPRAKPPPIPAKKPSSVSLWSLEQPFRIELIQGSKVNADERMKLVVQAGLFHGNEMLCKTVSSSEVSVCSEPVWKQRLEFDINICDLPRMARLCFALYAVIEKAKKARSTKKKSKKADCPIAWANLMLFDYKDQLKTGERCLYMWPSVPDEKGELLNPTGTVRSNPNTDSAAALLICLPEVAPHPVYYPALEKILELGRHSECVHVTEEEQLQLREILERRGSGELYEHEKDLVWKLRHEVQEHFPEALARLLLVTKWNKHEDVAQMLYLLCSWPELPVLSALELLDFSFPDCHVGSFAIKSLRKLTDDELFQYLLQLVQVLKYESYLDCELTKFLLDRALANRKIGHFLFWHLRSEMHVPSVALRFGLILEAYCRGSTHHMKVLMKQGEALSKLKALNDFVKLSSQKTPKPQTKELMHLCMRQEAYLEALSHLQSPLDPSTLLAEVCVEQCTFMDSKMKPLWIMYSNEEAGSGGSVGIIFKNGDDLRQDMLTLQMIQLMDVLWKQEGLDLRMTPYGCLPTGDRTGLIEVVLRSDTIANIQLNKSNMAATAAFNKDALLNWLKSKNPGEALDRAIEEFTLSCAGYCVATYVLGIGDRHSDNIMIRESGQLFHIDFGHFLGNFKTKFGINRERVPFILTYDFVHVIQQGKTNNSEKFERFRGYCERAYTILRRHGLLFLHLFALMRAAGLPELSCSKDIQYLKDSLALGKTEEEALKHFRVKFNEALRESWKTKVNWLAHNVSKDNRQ
T2 sequence (P27986 whole entry partner): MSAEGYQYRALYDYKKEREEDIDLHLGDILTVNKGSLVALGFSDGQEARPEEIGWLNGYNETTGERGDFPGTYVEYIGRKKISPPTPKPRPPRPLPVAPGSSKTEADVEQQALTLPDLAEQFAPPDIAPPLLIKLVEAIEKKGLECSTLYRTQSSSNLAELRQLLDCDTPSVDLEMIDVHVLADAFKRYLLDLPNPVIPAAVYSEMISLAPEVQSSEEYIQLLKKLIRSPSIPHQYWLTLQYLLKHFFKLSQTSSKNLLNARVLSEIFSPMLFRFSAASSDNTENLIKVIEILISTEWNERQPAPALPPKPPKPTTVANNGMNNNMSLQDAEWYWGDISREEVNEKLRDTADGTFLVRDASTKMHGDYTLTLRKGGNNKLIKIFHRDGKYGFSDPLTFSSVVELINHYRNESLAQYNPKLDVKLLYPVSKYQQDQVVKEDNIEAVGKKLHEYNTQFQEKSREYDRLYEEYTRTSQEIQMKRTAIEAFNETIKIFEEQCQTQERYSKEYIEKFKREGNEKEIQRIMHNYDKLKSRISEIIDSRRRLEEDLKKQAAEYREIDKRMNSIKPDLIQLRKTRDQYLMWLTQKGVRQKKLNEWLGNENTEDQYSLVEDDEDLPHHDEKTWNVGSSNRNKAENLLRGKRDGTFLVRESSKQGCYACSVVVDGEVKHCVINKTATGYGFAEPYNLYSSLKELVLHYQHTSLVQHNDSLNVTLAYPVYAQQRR
Experimental: as §1

PI3K β = target: T3, PI3K β (Homo sapiens, UniProt P42338); test: In vitro PI3K β inhibition assay; assay type: biochemical
T3 construct: purchased Upstate
T3 sequence (P42338 whole entry): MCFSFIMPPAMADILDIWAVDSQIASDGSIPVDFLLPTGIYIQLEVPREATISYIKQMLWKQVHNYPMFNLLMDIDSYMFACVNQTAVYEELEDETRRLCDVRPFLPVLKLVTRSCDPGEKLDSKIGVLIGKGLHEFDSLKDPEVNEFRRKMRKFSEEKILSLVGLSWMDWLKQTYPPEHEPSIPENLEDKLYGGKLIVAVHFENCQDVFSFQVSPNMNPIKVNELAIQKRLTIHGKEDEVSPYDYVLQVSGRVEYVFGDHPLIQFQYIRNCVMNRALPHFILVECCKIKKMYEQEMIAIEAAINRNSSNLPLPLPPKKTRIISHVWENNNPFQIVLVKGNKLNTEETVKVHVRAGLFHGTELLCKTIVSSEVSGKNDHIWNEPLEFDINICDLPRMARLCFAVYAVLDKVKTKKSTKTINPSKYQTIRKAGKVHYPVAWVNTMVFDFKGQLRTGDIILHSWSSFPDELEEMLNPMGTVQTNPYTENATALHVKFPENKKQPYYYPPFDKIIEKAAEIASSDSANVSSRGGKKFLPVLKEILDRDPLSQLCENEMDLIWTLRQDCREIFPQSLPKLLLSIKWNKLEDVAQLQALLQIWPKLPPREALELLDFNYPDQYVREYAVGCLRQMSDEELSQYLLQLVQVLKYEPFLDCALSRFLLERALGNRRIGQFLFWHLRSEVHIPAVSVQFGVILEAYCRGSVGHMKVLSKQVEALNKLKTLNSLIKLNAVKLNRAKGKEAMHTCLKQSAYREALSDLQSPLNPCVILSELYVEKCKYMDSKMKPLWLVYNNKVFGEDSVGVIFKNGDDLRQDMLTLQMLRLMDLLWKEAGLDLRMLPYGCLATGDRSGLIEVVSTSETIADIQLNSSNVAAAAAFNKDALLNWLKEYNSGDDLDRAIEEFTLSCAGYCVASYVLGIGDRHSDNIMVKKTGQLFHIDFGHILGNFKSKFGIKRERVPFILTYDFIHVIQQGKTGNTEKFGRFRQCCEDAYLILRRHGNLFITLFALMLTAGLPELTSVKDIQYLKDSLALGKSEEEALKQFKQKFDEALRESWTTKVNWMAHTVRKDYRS
T3 sequence (P27986 whole entry partner): as the sequence (P27986 whole entry partner) above
Experimental: (§2) Class I PI3-Ks can be either purchased (p110α/p85α, p110β/p85α, p110δ/p85α from Upstate, and p110γ from Sigma) or expressed as previously described (Knight et al., 2004). IC50 values are measured using either a standard TLC assay for lipid kinase activity (described below) or a high-throughput membrane capture assay. Kinase reactions are performed by preparing a reaction mixture containing kinase, inhibitor (2% DMSO final concentration), buffer (25 mM HEPES, pH 7.4, 10 mM MgCl2), and freshly sonicated phosphatidylinositol (100 μg/ml). Reactions are initiated by the addition of ATP containing 10 μCi of γ-32P-ATP to a final concentration of 10 or 100 μM and allowed to proceed for 5 minutes at room temperature. For TLC analysis, reactions are then terminated by the addition of 105 μl 1N HCl followed by 160 μl CHCl3:MeOH (1:1). The biphasic mixture is vortexed, briefly centrifuged, and the organic phase is transferred to a new tube using a gel loading pipette tip precoated with CHCl3. This extract is spotted on TLC plates and developed for 3-4 hours in a 65:35 solution of n-propanol:1M acetic acid. The TLC plates are then dried, exposed to a phosphorimager screen (Storm, Amersham), and quantitated. For each compound, kinase activity is measured at 10-12 inhibitor concentrations representing two-fold dilutions from the highest concentration tested (typically, 200 μM).
(§3) Other commercial kits or systems for assaying PI3-K activities are available. The commercially available kits or systems can be used to screen for inhibitors and/or agonists of PI3-Ks including, but not limited to, PI 3-Kinase α, β, δ, and γ. An exemplary system is PI 3-Kinase (human) HTRF™ Assay from Upstate. […] Briefly, the assay is a time resolved FRET assay that indirectly measures PIP3 product formed by the activity of a PI3-K. The kinase reaction is performed in a microtiter plate (e.g., a 384 well microtiter plate). The total reaction volume is approximately 20 μl per well. In the first step, each well receives 2 μl of test compound in 20% dimethylsulphoxide resulting in a 2% DMSO final concentration. Next, approximately 14.5 μl of a kinase/PIP2 mixture (diluted in 1× reaction buffer) is added per well for a final concentration of 0.25-0.3 μg/ml kinase and 10 μM PIP2. The plate is sealed and incubated for 15 minutes at room temperature. To start the reaction, 3.5 μl of ATP (diluted in 1× reaction buffer) is added per well for a final concentration of 10 μM ATP. The plate is sealed and incubated for 1 hour at room temperature. The reaction is stopped by adding 5 μl of Stop Solution per well and then 5 μl of Detection Mix is added per well. The plate is sealed, incubated for 1 hour at room temperature, and then read on an appropriate plate reader. Data is analyzed and IC50s are generated using GraphPad Prism 5.

PI3K α = target: T4, PI3K α (Homo sapiens, UniProt P42336); test: In vitro PI3K α inhibition assay; assay type: biochemical
T4 construct: purchased Upstate
T4 sequence (P42336 whole entry): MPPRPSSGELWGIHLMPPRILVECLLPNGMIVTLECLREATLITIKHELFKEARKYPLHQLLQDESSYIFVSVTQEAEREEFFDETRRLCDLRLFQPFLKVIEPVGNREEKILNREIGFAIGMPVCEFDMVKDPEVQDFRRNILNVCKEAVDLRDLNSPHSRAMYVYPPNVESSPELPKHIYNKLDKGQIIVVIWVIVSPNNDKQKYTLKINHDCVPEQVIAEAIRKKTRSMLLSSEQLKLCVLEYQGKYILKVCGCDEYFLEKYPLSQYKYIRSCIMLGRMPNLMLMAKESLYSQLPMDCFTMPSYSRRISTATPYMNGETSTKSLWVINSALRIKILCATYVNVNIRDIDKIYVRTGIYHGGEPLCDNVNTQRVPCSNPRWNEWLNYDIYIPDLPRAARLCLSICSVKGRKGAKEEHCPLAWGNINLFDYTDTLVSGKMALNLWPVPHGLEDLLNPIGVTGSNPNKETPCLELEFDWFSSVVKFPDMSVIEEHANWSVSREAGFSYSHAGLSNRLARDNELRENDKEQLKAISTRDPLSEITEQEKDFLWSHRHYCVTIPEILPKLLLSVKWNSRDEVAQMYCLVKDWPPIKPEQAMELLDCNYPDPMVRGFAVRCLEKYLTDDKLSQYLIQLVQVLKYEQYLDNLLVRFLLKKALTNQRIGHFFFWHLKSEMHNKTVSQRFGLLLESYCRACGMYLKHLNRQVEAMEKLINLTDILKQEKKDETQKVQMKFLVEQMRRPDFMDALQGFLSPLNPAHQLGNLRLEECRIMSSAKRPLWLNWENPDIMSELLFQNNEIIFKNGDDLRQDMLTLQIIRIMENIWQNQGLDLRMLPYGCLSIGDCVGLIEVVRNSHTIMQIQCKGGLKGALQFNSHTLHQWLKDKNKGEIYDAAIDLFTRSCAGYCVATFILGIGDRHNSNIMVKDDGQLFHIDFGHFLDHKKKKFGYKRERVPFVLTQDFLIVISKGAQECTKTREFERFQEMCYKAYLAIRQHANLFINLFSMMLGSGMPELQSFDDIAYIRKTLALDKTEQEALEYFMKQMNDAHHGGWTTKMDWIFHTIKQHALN
T4 sequence (P27986 whole entry partner): as the sequence (P27986 whole entry partner) above
Experimental: as §2, §3

T1 sequence (P48736 whole entry): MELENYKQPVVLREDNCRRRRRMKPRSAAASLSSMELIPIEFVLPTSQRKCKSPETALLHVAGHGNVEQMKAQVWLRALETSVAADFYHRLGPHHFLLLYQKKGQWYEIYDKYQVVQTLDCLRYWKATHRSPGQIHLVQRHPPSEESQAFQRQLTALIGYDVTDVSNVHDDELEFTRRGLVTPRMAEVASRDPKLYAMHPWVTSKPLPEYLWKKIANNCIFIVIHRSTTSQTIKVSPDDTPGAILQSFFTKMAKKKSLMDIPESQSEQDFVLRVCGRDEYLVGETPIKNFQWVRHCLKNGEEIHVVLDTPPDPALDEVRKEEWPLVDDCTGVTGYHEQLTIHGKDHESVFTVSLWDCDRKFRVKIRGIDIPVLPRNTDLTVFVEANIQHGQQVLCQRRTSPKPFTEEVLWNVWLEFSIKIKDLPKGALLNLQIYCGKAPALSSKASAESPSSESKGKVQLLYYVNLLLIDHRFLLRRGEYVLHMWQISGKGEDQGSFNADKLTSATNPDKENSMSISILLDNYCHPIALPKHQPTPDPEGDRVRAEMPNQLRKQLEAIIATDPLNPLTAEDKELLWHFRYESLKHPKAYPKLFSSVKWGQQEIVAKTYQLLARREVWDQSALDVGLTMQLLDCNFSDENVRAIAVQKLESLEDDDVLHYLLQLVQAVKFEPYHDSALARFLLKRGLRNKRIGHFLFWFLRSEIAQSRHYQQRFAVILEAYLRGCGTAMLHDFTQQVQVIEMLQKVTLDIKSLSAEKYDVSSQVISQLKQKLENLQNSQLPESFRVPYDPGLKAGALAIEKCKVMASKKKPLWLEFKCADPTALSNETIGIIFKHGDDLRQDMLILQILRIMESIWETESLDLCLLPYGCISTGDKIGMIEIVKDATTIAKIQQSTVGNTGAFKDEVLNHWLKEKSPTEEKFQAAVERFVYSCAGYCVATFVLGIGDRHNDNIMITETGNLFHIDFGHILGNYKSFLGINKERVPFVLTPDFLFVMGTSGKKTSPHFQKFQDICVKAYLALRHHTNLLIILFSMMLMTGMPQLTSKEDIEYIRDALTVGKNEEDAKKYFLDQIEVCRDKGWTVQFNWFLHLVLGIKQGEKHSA

IC50 (PI3K γ)	IC50 (PI3K δ)	IC50 (PI3K β)	IC50 (PI3K α)	SMILES	EC50 (Balb/c splenic B cells)
< 10000 nM				Cc1cnn(-c2cccc3cc([C@H](C)Nc4ncnc5[nH]cnc45)n(-c4ccccc4)c(=O)c23)c1 [Compound 30]	< 1 µM
				C[C@H](Nc1ncnc2[nH]cnc12)c1cc2cccc(-c3cccnc3)c2c(=O)[nH]1 [Compound 49]	< 0.1 µM
< 10000 nM				C[C@H](Nc1ncnc(N)n1)c1cc2cccc(-c3cnn(C)c3)c2c(=O)n1-c1ccccc1 [Compound 33, 3-((S)-1-(4-amino-1,3,5-triazin-2-ylamino)ethyl)-8-(1-methyl-1H-pyrazol-4-yl)-2-phenylisoquinolin-1(2H)-one]	< 0.1 µM
	< 10000 nM			C[C@H](Nc1ncnn2cncc12)c1cc2cccc(-c3cnn(C)c3)c2c(=O)n1-c1ccccc1 [Compound 54]	
< 10000 nM				Cc1cn(-c2cccc3cc([C@H](C)Nc4ncnc5[nH]cnc45)n(-c4ccccc4)c(=O)c23)cn1 [Compound 31]	< 0.1 µM
				C[C@H](Nc1nc(N)ncc1C(F)(F)F)c1cc2cccc(-c3cnn(C)c3)c2c(=O)n1-c1ccccc1 [Compound 68]	< 0.1 µM
		< 10000 nM		Cc1cc(-c2cccc3cc([C@H](C)Nc4ncnc5[nH]cnc45)n(-c4ccccc4)c(=O)c23)ccn1 [Compound 41]	< 0.1 µM
< 10000 nM			< 10000 nM	COc1ncc(-c2cccc3cc([C@H](C)Nc4ncnc5[nH]cnc45)n(-c4ccccc4)c(=O)c23)cn1 [Compound 76]	
< 10000 nM				Cc1ccc(-c2cccc3cc([C@H](C)Nc4ncnc(N)n4)n(-c4ccccc4)c(=O)c23)cn1 [Compound 34]	< 1 µM
			< 10000 nM	C[C@H](Nc1ncnc(N)c1C#N)c1cc2cccc(-c3cnn(C)c3)c2c(=O)n1-c1ccccc1 [Compound 73]	
		< 10000 nM		C[C@H](Nc1ncnc2[nH]cc(C#N)c12)c1cc2cccc(-c3cnn(C)c3)c2c(=O)n1-c1ccccc1 [Compound 56]	< 0.1 µM
		< 10000 nM		C[C@H](Nc1nc(N)nc2[nH]cnc12)c1cc2cccc(-c3cnn(C)c3)c2c(=O)n1-c1ccccc1 [Compound 36]	< 0.1 µM
		< 10000 nM		C[C@H](Nc1nc(N)nc2[nH]cnc12)c1cc2cccc(-c3cccnc3)c2c(=O)n1-c1ccccc1 [Compound 38]	
			< 10000 nM	C[C@H](Nc1nc(N)ncc1C#N)c1cc2cccc(-c3cnn(C)c3)c2c(=O)n1C1CC1 [Compound 72]	
				C[C@H](Nc1nc(N)ncc1C(F)(F)F)c1cc2cccc(-c3cnn(C)c3)c2c(=O)n1C1CC1 [Compound 67]	< 0.1 µM
		< 10000 nM		Cc1ccc(-c2cccc3cc([C@H](C)Nc4nc(N)nc5[nH]cnc45)n(-c4ccccc4)c(=O)c23)cn1 [Compound 37]	< 0.1 µM
< 10000 nM	< 1000 nM	> 10000 nM	> 10000 nM	C[C@@H](Nc1ncnc2[nH]cnc12)c1cc2cccc(NC3CCOCC3)c2c(=O)n1-c1ccccc1 (stereo in doubt) [Compound 40]	
	< 10000 nM			C[C@H](Nc1ncnc2[nH]cnc12)c1cc2cccc(-c3cnn(C)c3)c2c(=O)[nH]1 [Compound 50]	
< 10000 nM	< 10000 nM			C[C@H](Nc1ncnc2[nH]cnc12)c1cc2cccc(N3CCCC3)c2c(=O)n1-c1ccccc1 [Compound 4, (S)-3-(1-((9H-purin-6-yl)amino)ethyl)-2-phenyl-8-(pyrrolidin-1-yl)isoquinolin-1 (2H)-one]	< 1 µM
< 1000 nM	< 1000 nM	> 10000 nM	> 10000 nM	C[C@@H](Nc1ncnc2[nH]cnc12)c1cc2cccc(N3CCOCC3)c2c(=O)n1-c1ccccc1 (stereo in doubt) [Compound 39]	
			< 10000 nM	C[C@H](Nc1ncnc2[nH]cnc12)c1cc2cccc(-c3cnn(C)c3)c2c(=O)n1-c1cccc(F)c1 [Compound 45]	< 0.1 µM
< 10000 nM				C[C@H](Nc1ncnc2[nH]cnc12)c1cc2cccc(-n3cccn3)c2c(=O)n1-c1ccccc1 [Compound 29]	< 1 µM
				C[C@H](Nc1ncnc2[nH]cnc12)c1cc2cccc(N3CCN(C)CC3)c2c(=O)n1-c1ccccc1 [Compound 5, (S)-3-(1-((9H-purin-6-yl)amino)ethyl)-8-(4-methylpiperazin-1-yl)-2-phenylisoquinolin-1(2H)-one]	< 0.1 µM
			< 10000 nM	Cc1ccc(-c2cccc3cc([C@H](C)Nc4ncnc5[nH]cnc45)n(-c4ccccc4)c(=O)c23)cn1 [Compound 27]	< 0.1 µM
		< 10000 nM	< 10000 nM	C[C@H](Nc1ncnc2[nH]cc(F)c12)c1cc2cccc(-c3cnn(C)c3)c2c(=O)n1C1CC1 [Compound 62]	< 0.1 µM
		< 10000 nM	< 10000 nM	C[C@H](Nc1ncnc2[nH]cc(C(N)=O)c12)c1cc2cccc(-c3cnn(C)c3)c2c(=O)n1-c1ccccc1 [Compound 58]	
			< 10000 nM	C[C@H](Nc1ncnn2ccnc12)c1cc2cccc(-c3cnn(C)c3)c2c(=O)n1-c1ccccc1 [Compound 52]	< 0.1 µM
